# Target: human recombinant GPR65 (Homo sapiens, UniProt Q8IYL9)
# Assay: Human GPR65 cAMP HTRF antagonist assay
# Type: cell-based
# Settings: not given
# Procedure, shortened: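 1321N1 astrocytoma cells stably expressing hrGPR65, with IBMX and EDTA, were preincubated with compound 30 min at room temperature, then acid-activated at assay pH 7.2 (control pH 7.9) for 30 min. cAMP read by HTRF (665/620 nm ratio); IC50 from 4-parameter fit normalised to high/low controls.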
# Sequence of human recombinant GPR65 (Q8IYL9 whole entry): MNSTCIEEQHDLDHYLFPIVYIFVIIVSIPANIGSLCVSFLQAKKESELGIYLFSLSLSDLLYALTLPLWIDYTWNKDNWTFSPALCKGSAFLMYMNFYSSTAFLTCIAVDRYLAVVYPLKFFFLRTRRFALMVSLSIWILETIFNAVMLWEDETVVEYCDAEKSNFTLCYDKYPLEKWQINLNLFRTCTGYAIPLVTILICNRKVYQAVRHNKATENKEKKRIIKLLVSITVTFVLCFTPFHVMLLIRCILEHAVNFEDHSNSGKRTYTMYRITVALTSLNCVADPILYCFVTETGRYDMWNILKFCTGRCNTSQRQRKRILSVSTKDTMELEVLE
row,Compound,IC50
1,"COc1ncc(-c2cc(F)c(NC(=O)N3[C@H]4CC[C@@H]3c3ccnc(F)c3C4)cc2Cl)cc1F [Compound 219, (5R,8S)-N-(5-Chloro-2-fluoro-4-(5-fluoro-6-methoxypyridin-3-yl)phenyl)-1-fluoro-6,7,8,9-tetrahydro-5H-5,8-epiminocyclohepta[c]pyridine-10-carboxamide]",< 500 nM
2,"O=C(Nc1cc(-c2ccccc2)c(C(F)(F)F)cc1F)N1[C@H]2CC[C@@H]1c1n[nH]c(=O)cc1C2 [Compound 258, (6S,9R)-N-(4-Fluoro-6-(trifluoromethyl)-[1,1′-biphenyl]-3-yl)-3-oxo-3,5,6,7,8,9-hexahydro-2H-6,9-epiminocyclohepta[c]pyridazine-10-carboxamide]",< 500 nM
3,"O=C(Nc1cc(Cl)c(-c2cc(F)cnc2F)cc1F)N1[C@H]2CC[C@@H]1c1n[nH]c(=O)cc1C2 [Compound 182, (6S,9R)-N-(5-Chloro-4-(2,5-difluoropyridin-3-yl)-2-fluorophenyl)-3-oxo-3,5,6,7,8,9-hexahydro-2H-6,9-epiminocyclohepta[c]pyridazine-10-carboxamide]",< 500 nM
4,"O=C(Nc1cc(Cl)c(-c2ncco2)cc1F)N1[C@H]2CC[C@@H]1c1n[nH]c(=O)cc1C2 [Compound 181, (6S,9R)-N-(5-Chloro-2-fluoro-4-(oxazol-2-yl)phenyl)-3-oxo-3,5,6,7,8,9-hexahydro-2H-6,9-epiminocyclohepta[c]pyridazine-10-carboxamide]",500 to 5000 nM
5,"O=C(Nc1cc(Cl)c(-c2ccc3cncn3c2)cc1F)N1[C@H]2CC[C@@H]1c1n[nH]c(=O)cc1C2 [Compound 197, (6S,9R)-N-(5-Chloro-2-fluoro-4-(imidazo[1,5-a]pyridin-6-yl)phenyl)-3-oxo-3,5,6,7,8,9-hexahydro-2H-6,9-epiminocyclohepta[c]pyridazine-10-carboxamide]",< 500 nM
6,"Cc1nc2ccc(-c3cc(F)c(NC(=O)N4[C@H]5CC[C@@H]4c4c[nH]c(=O)cc4C5)cc3Cl)cc2o1 [Compound 206, (6S,9R)-N-(5-Chloro-2-fluoro-4-(2-methylbenzo[d]oxazol-6-yl)phenyl)-3-oxo-3,5,6,7,8,9-hexahydro-2H-6,9-epiminocyclohepta[c]pyridine-10-carboxamide]",< 500 nM
7,"CC(C)Oc1ccc(-c2cc(F)c(NC(=O)N3[C@H]4CC[C@@H]3c3ccnc(F)c3C4)cc2Cl)cn1 [Compound 274, (5R,8S)-N-(5-Chloro-2-fluoro-4-(6-isopropoxypyridin-3-yl)phenyl)-1-fluoro-6,7,8,9-tetrahydro-5H-5,8-epiminocyclohepta[c]pyridine-10-carboxamide]",< 500 nM
8,"O=C(Nc1cc(Cl)c(-c2ccc(OC(F)F)nc2)cc1F)N1[C@H]2CC[C@@H]1c1ccnc(F)c1C2 [Compound 324, (5R,8S)-N-(5-Chloro-4-(6-(difluoromethoxy)pyridin-3-yl)-2-fluorophenyl)-1-fluoro-6,7,8,9-tetrahydro-5H-5,8-epiminocyclohepta[c]pyridine-10-carboxamide]",< 500 nM
9,"O=C(Nc1cc(C(F)(F)F)c(-c2ccc(F)nc2)cc1F)N1[C@H]2CC[C@@H]1c1n[nH]c(=O)cc1C2 [Compound 212, (6S,9R)-N-(2-Fluoro-4-(6-fluoropyridin-3-yl)-5-(trifluoromethyl)phenyl)-3-oxo-3,5,6,7,8,9-hexahydro-2H-6,9-epiminocyclohepta[c]pyridazine-10-carboxamide]",< 500 nM
10,"Cc1nc2cc(-c3cc(F)c(NC(=O)N4[C@H]5CC[C@@H]4c4c[nH]c(=O)cc4C5)cc3Cl)ccc2o1 [Compound 232, (6S,9R)-N-(5-Chloro-2-fluoro-4-(2-methylbenzo[d]oxazol-5-yl)phenyl)-3-oxo-3,5,6,7,8,9-hexahydro-2H-6,9-epiminocyclohepta[c]pyridine-10-carboxamide]",< 500 nM
11,"CO[C@H]1C[C@H](Oc2ccc(-c3cc(F)c(NC(=O)N4[C@H]5CC[C@@H]4c4c[nH]c(=O)cc4C5)cc3Cl)cn2)C1 [Compound 317, (6S,9R)-N-(5-Chloro-2-fluoro-4-(6-((1r,3R)-3-methoxycyclobutoxy)pyridin-3-yl)phenyl)-3-oxo-3,5,6,7,8,9-hexahydro-2H-6,9-epiminocyclohepta[c]pyridine-10-carboxamide]",< 500 nM
12,"O=C(Nc1cc(Cl)c(-c2cnc3nonc3c2)cc1F)N1[C@H]2CC[C@@H]1c1c[nH]c(=O)cc1C2 [Compound 189, (6S,9R)-N-(4-([1,2,5]oxadiazolo[3,4-b]pyridin-6-yl)-5-chloro-2-fluorophenyl)-3-oxo-3,5,6,7,8,9-hexahydro-2H-6,9-epiminocyclohepta[c]pyridine-10-carboxamide]",< 500 nM
13,"O=C(Nc1cc(Cl)c(-c2cnn(-c3ccncc3)c2)cc1F)N1[C@H]2CC[C@@H]1c1n[nH]c(=O)cc1C2 [Compound 145, (6S,9R)-N-(5-Chloro-2-fluoro-4-(1-(pyridin-4-yl)-1H-pyrazol-4-yl)phenyl)-3-oxo-3,5,6,7,8,9-hexahydro-2H-6,9-epiminocyclohepta[c]pyridazine-10-carboxamide]",< 500 nM
14,"O=C(Nc1cc(Cl)c(-c2cnc3nsnc3c2)cc1F)N1[C@H]2CC[C@@H]1c1n[nH]c(=O)cc1C2 [Compound 277, (6S,9R)-N-(4-([1,2,5]Thiadiazolo[3,4-b]pyridin-6-yl)-5-chloro-2-fluorophenyl)-3-oxo-3,5,6,7,8,9-hexahydro-2H-6,9-epiminocyclohepta[c]pyridazine-10-carboxamide]",< 500 nM
15,"O=C(Nc1cc(Cl)c(Br)cc1F)N1[C@H]2CC[C@@H]1c1c[nH]c(=O)nc1C2 [Compound 23, (5R,8S)-N-(4-Bromo-5-chloro-2-fluorophenyl)-2-oxo-3,5,6,7,8,9-hexahydro-2H-5,8-epiminocyclohepta[d]pyrimidine-10-carboxamide]",< 500 nM
16,"O=C(Nc1cc(Cl)c(-c2ccc(OCC(F)(F)F)nc2)cc1F)N1[C@H]2CC[C@@H]1c1c[nH]c(=O)cc1C2 [Compound 241, (6S,9R)-N-(5-Chloro-2-fluoro-4-(6-(2,2,2-trifluoroethoxy)pyridin-3-yl)phenyl)-3-oxo-3,5,6,7,8,9-hexahydro-2H-6,9-epiminocyclohepta[c]pyridine-10-carboxamide]",< 500 nM
17,"O=C(Nc1cc(Cl)c(-c2ccc(N3CCC3)nc2)cc1F)N1[C@H]2CC[C@@H]1c1n[nH]c(=O)cc1C2 [Compound 341, (6S,9R)-N-(4-(6-(Azetidin-1-yl)pyridin-3-yl)-5-chloro-2-fluorophenyl)-3-oxo-3,5,6,7,8,9-hexahydro-2H-6,9-epiminocyclohepta[c]pyridazine-10-carboxamide]",< 500 nM
18,"O=C(Nc1cc(Cl)c(-c2ccc3csnc3c2)cc1F)N1[C@H]2CC[C@@H]1c1n[nH]c(=O)cc1C2 [Compound 270, (6S,9R)-N-(4-(Benzo[c]isothiazol-6-yl)-5-chloro-2-fluorophenyl)-3-oxo-3,5,6,7,8,9-hexahydro-2H-6,9-epiminocyclohepta[c]pyridazine-10-carboxamide]",< 500 nM
19,"O=C(Nc1ccc(Cl)c(Br)c1)N1C2CCC1c1n[nH]c(=O)cc1C2 (racemic) [Compound 5, (±)-N-(3-Bromo-4-chlorophenyl)-3-oxo-3,5,6,7,8,9-hexahydro-2H-6,9-epiminocyclohepta[c]pyridazine-10-carboxamide]",< 500 nM
20,"O=C(Nc1cc(Cl)c(C(F)(F)F)cc1F)N1[C@@H]2CC[C@H]1c1ccnc(F)c1C2 [Compound 194, (5S,8R)-N-(5-Chloro-2-fluoro-4-(trifluoromethyl)phenyl)-1-fluoro-6,7,8,9-tetrahydro-5H-5,8-epiminocyclohepta[c]pyridine-10-carboxamide]",< 500 nM
21,"COc1cc(-c2cc(F)c(NC(=O)N3[C@H]4CC[C@@H]3c3ccnc(F)c3C4)cc2Cl)ccn1 [Compound 264, (5R,8S)-N-(5-Chloro-2-fluoro-4-(2-methoxypyridin-4-yl)phenyl)-1-fluoro-6,7,8,9-tetrahydro-5H-5,8-epiminocyclohepta[c]pyridine-10-carboxamide]",< 500 nM
22,"O=C(Nc1cc(Cl)c(-c2ccc(C(F)(F)F)nc2)cc1F)N1[C@H]2CC[C@@H]1c1c[nH]c(=O)cc1C2 [Compound 312, (6S,9R)-N-(5-Chloro-2-fluoro-4-(6-(trifluoromethyl)pyridin-3-yl)phenyl)-3-oxo-3,5,6,7,8,9-hexahydro-2H-6,9-epiminocyclohepta[c]pyridine-10-carboxamide]",< 500 nM
23,"CO[C@H]1C[C@H](Oc2ccc(NC(=O)N3[C@H]4CC[C@@H]3c3ccnc(F)c3C4)cc2Cl)C1 [Compound 73, (5R,8S)-N-(3-Chloro-4-((1r,3R)-3-methoxycyclobutoxy)phenyl)-1-fluoro-6,7,8,9-tetrahydro-5H-5,8-epiminocyclohepta[c]pyridine-10-carboxamide]",500 to 5000 nM

# Same assay, conditions: 1321N1-hrGPR65 cells, cAMP HTRF, assay pH 7.2; read-out: hGPR65 IC50 (Activity of selected compounds according to the invention)
row,Compound,IC50
1,"O=C(Nc1ccc(N2CC3CCC(C2)O3)cc1)N1[C@H]2CC[C@@H]1c1ccnc(F)c1C2 [Compound 62, (5R,8S)-N-(4-(8-Oxa-3-azabicyclo[3.2.1]octan-3-yl)phenyl)-1-fluoro-6,7,8,9-tetrahydro-5H-5,8-epiminocyclohepta[c]pyridine-10-carboxamide]",> 5000 nM
2,"Cc1ncc(-c2ccc(NC(=O)N3[C@H]4CC[C@@H]3c3ccnc(F)c3C4)cc2)o1 [Compound 56, (5R,8S)-1-Fluoro-N-(4-(2-methyloxazol-5-yl)phenyl)-6,7,8,9-tetrahydro-5H-5,8-epiminocyclohepta[c]pyridine-10-carboxamide]",500 to 5000 nM
3,"O=C(Nc1cc(Cl)c(Cl)cc1F)N1[C@H]2CC[C@@H]1c1ccnc(OC(F)F)c1C2 [Compound 93, (5R,8S)-N-(4,5-dichloro-2-fluorophenyl)-1-(difluoromethoxy)-6,7,8,9-tetrahydro-5H-5,8-epiminocyclohepta[c]pyridine-10-carboxamide]",500 to 5000 nM
4,"O=C(Nc1ccc(Br)c(Cl)c1)N1[C@@H]2CC[C@H]1c1n[nH]c(=O)cc1C2 [Compound 40, (6R,9S)-N-(4-Bromo-3-chlorophenyl)-3-oxo-3,5,6,7,8,9-hexahydro-2H-6,9-epiminocyclohepta[c]pyridazine-10-carboxamide]",> 5000 nM

# Reference: patent US20240368173A1, “TRICYCLIC GPR65 MODULATORS” (PATHIOS THERAPEUTICS LIMITED, priority 2021, published 2024)
